{"source": "patent US20090143279A1", "about": "(priority 2007, published 2009)", "key": {"reactive oxygen species": {"tested_on": "reactive oxygen species", "type": "cell-based, mouse"}, "[1]": {"tested_on": "cellular dehydrogenase activity"}, "nuOXPHOS transcripts": {"tested_on": "nuOXPHOS transcripts", "type": "cell-based, mouse"}, "cytochrome c": {"tested_on": "cytochrome c", "sequence (P62897 whole entry)": "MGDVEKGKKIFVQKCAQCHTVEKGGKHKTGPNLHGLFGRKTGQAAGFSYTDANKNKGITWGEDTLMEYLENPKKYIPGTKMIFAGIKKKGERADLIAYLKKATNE", "type": "cell-based, mouse"}, "[2]": {"tested_on": "mitochondrial membrane potential", "type": "cell-based, mouse"}, "OXPHOS gene expression": {"tested_on": "OXPHOS gene expression", "type": "cell-based, mouse"}, "mtOXPHOS transcripts": {"tested_on": "mtOXPHOS transcripts", "type": "cell-based, mouse"}, "[3]": {"conditions": "composite Z-score vs DMSO, Conc 20 μM"}, "[4]": {"conditions": "13.16 μM, composite Z-score vs DMSO"}, "[5]": {"conditions": "20 μM, composite Z-score vs DMSO"}, "[6]": {"conditions": "composite Z-score vs mock-treated (DMSO) wells, concentration of each compound in μM"}, "[7]": {"conditions": "normalized composite Z-score vs mock-treated (DMSO) wells, Conc 20 μM"}, "[8]": {"conditions": "composite Z-score vs DMSO wells, Conc 20 μM"}, "[9]": {"conditions": "composite Z-score vs mock-treated (DMSO) wells, Conc 20 μM"}}, "note": "Counter-ions that a name gives are not always drawn. Like-named read-outs stand apart in the source and are kept apart here. Where a SMILES comes first, the peptide text is derived from it. The star is where a group is joined. Tfa = O=C(C(F)(F)F)*"}
{"compound": "COc1ccc(-c2coc3cc(O)ccc3c2=O)c(OC)c1O", "note": "[koparin 2′-methyl ether]", "values": [{"measurement": "ROS", "setting": "reactive oxygen species; [3]", "value": 0.126}, {"measurement": "MTT", "setting": "[1]; [3]", "value": "−0.532"}, {"measurement": "nucOX", "setting": "nuOXPHOS transcripts; [3]", "value": "−1.461"}, {"measurement": "cyt c", "setting": "cytochrome c; [3]", "value": 0.007}, {"measurement": "ΔΨm", "setting": "[2]; [3]", "value": "−0.442"}, {"measurement": "Viability", "setting": "C2C12 myotubes; [3]", "value": 0.024}, {"measurement": "GE-HTS", "setting": "OXPHOS gene expression; [3]", "value": "−1.151"}, {"measurement": "mitoOX", "setting": "mtOXPHOS transcripts; [3]", "value": "−0.309"}]}
{"compound": "CC(COc1ccccc1)N(CCCl)Cc1ccccc1", "note": "(centres unmarked) [phenoxybenzamine]", "values": [{"measurement": "ROS", "setting": "reactive oxygen species; [4]", "value": 0.444}, {"measurement": "ROS", "setting": "reactive oxygen species; [5]", "value": 0.256}, {"measurement": "MTT", "setting": "[1]; [4]", "value": "−0.159"}, {"measurement": "MTT", "setting": "[1]; [5]", "value": "−1.049"}, {"measurement": "nucOX", "setting": "nuOXPHOS transcripts; [4]", "value": "−0.306"}, {"measurement": "nucOX", "setting": "nuOXPHOS transcripts; [5]", "value": "−1.077"}, {"measurement": "cyt c", "setting": "cytochrome c; [4]", "value": "−0.470"}, {"measurement": "cyt c", "setting": "cytochrome c; [5]", "value": "−0.188"}, {"measurement": "ΔΨm", "setting": "[2]; [4]", "value": "−0.422"}, {"measurement": "ΔΨm", "setting": "[2]; [5]", "value": 0.021}, {"measurement": "Viability", "setting": "C2C12 myotubes; [4]", "value": "−0.751"}, {"measurement": "Viability", "setting": "C2C12 myotubes; [5]", "value": "−0.906"}, {"measurement": "GE-HTS", "setting": "OXPHOS gene expression; [4]", "value": "−0.155"}, {"measurement": "GE-HTS", "setting": "OXPHOS gene expression; [5]", "value": "−1.302"}, {"measurement": "mitoOX", "setting": "mtOXPHOS transcripts; [4]", "value": 0.167}, {"measurement": "mitoOX", "setting": "mtOXPHOS transcripts; [5]", "value": "−1.462"}]}
{"compound": "COc1cc(O)c2c(=O)cc(-c3ccc(OC)c(-c4c(O)cc(O)c5c(=O)cc(-c6ccc(O)cc6)oc45)c3)oc2c1", "note": "[ginkgetin]", "values": [{"measurement": "ROS", "setting": "reactive oxygen species; [3]", "value": "−1.347"}, {"measurement": "MTT", "setting": "[1]; [3]", "value": "−3.855"}, {"measurement": "nucOX", "setting": "nuOXPHOS transcripts; [3]", "value": "−2.585"}, {"measurement": "cyt c", "setting": "cytochrome c; [3]", "value": "−3.027"}, {"measurement": "ΔΨm", "setting": "[2]; [3]", "value": "−4.324"}, {"measurement": "Viability", "setting": "C2C12 myotubes; [3]", "value": "−1.523"}, {"measurement": "GE-HTS", "setting": "OXPHOS gene expression; [3]", "value": "−2.228"}, {"measurement": "mitoOX", "setting": "mtOXPHOS transcripts; [3]", "value": "−1.101"}]}
{"compound": "CC(C)[C@H](NC(=O)[C@H](Cc1ccc(O)cc1)NC(=O)[C@@H](NC(=O)C(F)(F)F)C(C)C)C(=O)O", "note": "[TFA-Val-Tyr-Val-OH] (Tfa-Val-Tyr-Val-OH)", "values": [{"measurement": "ROS", "setting": "reactive oxygen species; [6]", "value": 0.471}, {"measurement": "MTT", "setting": "[1]; [6]", "value": "−1.019"}, {"measurement": "nucOX", "setting": "nuOXPHOS transcripts; [6]", "value": 0.415}, {"measurement": "cyt c", "setting": "cytochrome c; [6]", "value": "−0.785"}, {"measurement": "ΔΨm", "setting": "[2]; [6]", "value": "−0.510"}, {"measurement": "Viability", "setting": "C2C12 myotubes; [6]", "value": "−0.143"}, {"measurement": "GE-HTS", "setting": "OXPHOS gene expression; [6]", "value": 0.294}, {"measurement": "mitoOX", "setting": "mtOXPHOS transcripts; [6]", "value": "−0.008"}]}
{"compound": "CC(=O)Oc1ccc(/C=C/c2cc(OC(C)=O)cc(OC(C)=O)c2)cc1", "note": "[triacetylresveratrol]", "values": [{"measurement": "ROS", "setting": "reactive oxygen species; [7]", "value": "−1.361"}, {"measurement": "MTT", "setting": "[1]; [7]", "value": "−2.002"}, {"measurement": "nucOX", "setting": "nuOXPHOS transcripts; [7]", "value": "−1.858"}, {"measurement": "cyt c", "setting": "cytochrome c; [7]", "value": 0.683}, {"measurement": "ΔΨm", "setting": "[2]; [7]", "value": "−3.502"}, {"measurement": "Viability", "setting": "C2C12 myotubes; [7]", "value": "−0.198"}, {"measurement": "GE-HTS", "setting": "OXPHOS gene expression; [7]", "value": "−1.841"}, {"measurement": "mitoOX", "setting": "mtOXPHOS transcripts; [7]", "value": "−1.401"}]}
{"compound": "C[C@]12C=CC(=O)C=C1CC[C@@H]1[C@@H]2CC[C@]2(C)C(=O)CC[C@@H]12", "note": "[androsta-1,4-dien-3,17-dione]", "values": [{"measurement": "ROS", "setting": "reactive oxygen species; [3]", "value": 0.068}, {"measurement": "MTT", "setting": "[1]; [3]", "value": "−0.500"}, {"measurement": "nucOX", "setting": "nuOXPHOS transcripts; [3]", "value": "−0.143"}, {"measurement": "cyt c", "setting": "cytochrome c; [3]", "value": 0.261}, {"measurement": "ΔΨm", "setting": "[2]; [3]", "value": 0.152}, {"measurement": "Viability", "setting": "C2C12 myotubes; [3]", "value": 0.162}, {"measurement": "GE-HTS", "setting": "OXPHOS gene expression; [3]", "value": "−0.180"}, {"measurement": "mitoOX", "setting": "mtOXPHOS transcripts; [3]", "value": "−0.189"}]}
{"compound": "CC1(C)C2CC(=O)[C@]3(C)C(CC[C@@]4(C)[C@H](c5ccoc5)OC(=O)C5OC543)[C@@]2(C)[C@@H](O)C[C@H]1O", "note": "(some centres unmarked) [1,3-dideacetyl-7-deacetoxy-7-oxokhivorin]", "values": [{"measurement": "ROS", "setting": "reactive oxygen species; [7]", "value": 1.267}, {"measurement": "MTT", "setting": "[1]; [7]", "value": "−1.399"}, {"measurement": "nucOX", "setting": "nuOXPHOS transcripts; [7]", "value": "−0.716"}, {"measurement": "cyt c", "setting": "cytochrome c; [7]", "value": 0.226}, {"measurement": "ΔΨm", "setting": "[2]; [7]", "value": 1.329}, {"measurement": "Viability", "setting": "C2C12 myotubes; [7]", "value": 0.190}, {"measurement": "GE-HTS", "setting": "OXPHOS gene expression; [7]", "value": "−0.665"}, {"measurement": "mitoOX", "setting": "mtOXPHOS transcripts; [7]", "value": "−0.497"}]}
{"compound": "Oc1c(Cl)cc(Cl)c(Cl)c1Cc1c(O)c(Cl)cc(Cl)c1Cl", "note": "[hexachlorophene]", "values": [{"measurement": "ROS", "setting": "reactive oxygen species; [8]", "value": "−3.378"}, {"measurement": "MTT", "setting": "[1]; [8]", "value": "−1.203"}, {"measurement": "nucOX", "setting": "nuOXPHOS transcripts; [8]", "value": "−1.371"}, {"measurement": "cyt c", "setting": "cytochrome c; [8]", "value": "−2.828"}, {"measurement": "ΔΨm", "setting": "[2]; [8]", "value": "−2.559"}, {"measurement": "Viability", "setting": "C2C12 myotubes; [8]", "value": "−3.480"}, {"measurement": "GE-HTS", "setting": "OXPHOS gene expression; [8]", "value": "−2.471"}, {"measurement": "mitoOX", "setting": "mtOXPHOS transcripts; [8]", "value": "−4.169"}]}
{"compound": "COc1ccc(/C=C/c2cc(O)cc(O)c2)cc1", "note": "[resveratrol 4′-methyl ether]", "values": [{"measurement": "ROS", "setting": "reactive oxygen species; [9]", "value": 0.225}, {"measurement": "MTT", "setting": "[1]; [9]", "value": "−1.056"}, {"measurement": "nucOX", "setting": "nuOXPHOS transcripts; [9]", "value": "−0.063"}, {"measurement": "cyt c", "setting": "cytochrome c; [9]", "value": 0.142}, {"measurement": "ΔΨm", "setting": "[2]; [9]", "value": "−0.389"}, {"measurement": "Viability", "setting": "C2C12 myotubes; [9]", "value": "−0.225"}, {"measurement": "GE-HTS", "setting": "OXPHOS gene expression; [9]", "value": "−0.005"}, {"measurement": "mitoOX", "setting": "mtOXPHOS transcripts; [9]", "value": 0.065}]}
{"compound": "COc1ccc([C@H]2COc3c(ccc(O)c3OC)C2)c(OC)c1O", "note": "[(−)-duartin]", "values": [{"measurement": "ROS", "setting": "reactive oxygen species; [6]", "value": 0.900}, {"measurement": "MTT", "setting": "[1]; [6]", "value": "−0.571"}, {"measurement": "nucOX", "setting": "nuOXPHOS transcripts; [6]", "value": "−0.331"}, {"measurement": "cyt c", "setting": "cytochrome c; [6]", "value": "−0.472"}, {"measurement": "ΔΨm", "setting": "[2]; [6]", "value": 0.392}, {"measurement": "Viability", "setting": "C2C12 myotubes; [6]", "value": 1.175}, {"measurement": "GE-HTS", "setting": "OXPHOS gene expression; [6]", "value": "−0.048"}, {"measurement": "mitoOX", "setting": "mtOXPHOS transcripts; [6]", "value": 0.466}]}
{"compound": "C=C1CC[C@@H]2[C@](C)(CO)[C@H](O)CC[C@@]2(C)[C@@H]1C/C=C1/C(=O)OC[C@H]1O", "note": "[andrographolide]", "values": [{"measurement": "ROS", "setting": "reactive oxygen species; [7]", "value": "−1.813"}, {"measurement": "MTT", "setting": "[1]; [7]", "value": "−0.901"}, {"measurement": "nucOX", "setting": "nuOXPHOS transcripts; [7]", "value": "−0.698"}, {"measurement": "cyt c", "setting": "cytochrome c; [7]", "value": "−0.044"}, {"measurement": "ΔΨm", "setting": "[2]; [7]", "value": "−0.165"}, {"measurement": "Viability", "setting": "C2C12 myotubes; [7]", "value": "−0.686"}, {"measurement": "GE-HTS", "setting": "OXPHOS gene expression; [7]", "value": "−1.323"}, {"measurement": "mitoOX", "setting": "mtOXPHOS transcripts; [7]", "value": "−2.361"}]}
{"compound": "avermectin B1", "values": [{"measurement": "ROS", "setting": "reactive oxygen species; [3]", "value": 2.442}, {"measurement": "MTT", "setting": "[1]; [3]", "value": "−0.284"}, {"measurement": "nucOX", "setting": "nuOXPHOS transcripts; [3]", "value": 0.170}, {"measurement": "cyt c", "setting": "cytochrome c; [3]", "value": 0.116}, {"measurement": "ΔΨm", "setting": "[2]; [3]", "value": "−0.336"}, {"measurement": "Viability", "setting": "C2C12 myotubes; [3]", "value": 0.129}, {"measurement": "GE-HTS", "setting": "OXPHOS gene expression; [3]", "value": 0.198}, {"measurement": "mitoOX", "setting": "mtOXPHOS transcripts; [3]", "value": 0.295}]}
